Experimental data taken from ChEMBL document CHEMBL1150928, “A new antitubercular mulinane diterpenoid from Azorella madreporica Clos” (J Nat Prod, 1998).
Converted amounts (≈) assume the structure as drawn.

How the values were obtained:
[1] = test system: Mycobacterium tuberculosis; assay: Antitubercular activity against Mycobacterium tuberculosis H37Rv ATCC 27294; type: functional
Vero = assay: Cytotoxicity against african green monkey Vero cells; type: cell-based; conditions: Chlorocebus sabaeus

Compound | MIC [1] [µg/mL] | IC50 (Vero) [µg/mL]
CC(C)[C@H]1CC[C@@H]2[C@]1(C)CC[C@@]1(C)CC[C@@](C)(O)[C@@H]3C[C@@]231 | 20 (≈ 68.8 µM) | 184 (≈ 633 µM)
CO[C@H]1/C=C/O[C@@]2(C)Oc3c(C)c(O)c4c(O)c(c(/C=N/N5CCN(C)CC5)c(O)c4c3C2=O)NC(=O)/C(C)=C\C=C\[C@H](C)[C@H](O)[C@@H](C)[C@@H](O)[C@@H](C)[C@H](OC(C)=O)[C@@H]1C [RIFAMPIN] |  | > 158
